Experiments:
[1] = system: Middle East respiratory syndrome-related coronavirus; assay: microbe, parasite or virus in culture; format: functional
[2] = target: Serine/threonine-protein kinase mTOR (Homo sapiens, UniProt P42345)
[3] = Cytotoxicity against human HaCaT cells; format: toxicity, cell-based
[4] = in vitro; conditions: human, HeLa cells
[5] = in vitro; conditions: human
[6] = system: Human immunodeficiency virus; assay: microbe, parasite or virus in culture; format: functional, organism-based; conditions: Human immunodeficiency virus 1
[7] = in vitro; conditions: human, jurkat 6c6-du cell
[8] = system: Pichinde virus; assay: Antiviral activity against PICV infected in african green monkey Vero cells assessed as reduction in viral titre at 100 uM relative to control; format: functional; set-up: scale not given: the % may be the effect or the level left
[9] = system: Human alphaherpesvirus 1; assay: Antiviral activity against HSV-1 infected in african green monkey Vero cells assessed as inhibition of cytopathic effect at 50 uM; format: functional; set-up: scale not given: the % may be the effect or the level left
[10] = system: Hepatitis B virus; assay: microbe, parasite or virus in culture; format: functional, organism-based; conditions: Hepatitis B virus
[11] = system: Pichinde virus; assay: Antiviral activity against PICV assessed as reduction of viral growth at 50 uM; format: functional; set-up: scale not given: the % may be the effect or the level left
[12] = system: Human alphaherpesvirus 1; assay: Antiviral activity against HSV-1 assessed as reduction of viral growth at 50 uM; format: functional; set-up: scale not given: the % may be the effect or the level left
[13] = system: Human immunodeficiency virus 1; assay: Antiviral activity against HIV-1 assessed as reduction of viral growth at 50 uM; format: functional; set-up: scale not given: the % may be the effect or the level left
[14] = in vitro; conditions: chlorocebus sabaeus, Vero cells
[15] = system: Cytomegalovirus; assay: Antiviral activity against CMV; format: functional, organism-based; conditions: Human betaherpesvirus 5
[16] = Cytotoxicity against HSG cells; format: toxicity, cell-based; conditions: human
[17] = system: Influenza A virus; assay: Antiviral activity against influenza pH1N1 virus; format: functional, organism-based
[18] = system: Influenza A virus; assay: microbe, parasite or virus in culture; format: functional, organism-based; conditions: H1N1
[19] = Cytotoxicity against human NCI-H1666 cells; format: toxicity, cell-based
[20] = Cytotoxicity against human LN-18 cells; format: toxicity, cell-based
[21] = target: Cyclin-dependent kinase 4 (Homo sapiens, UniProt P11802)
[22] = system: Human immunodeficiency virus 1; assay: microbe, parasite or virus in culture; format: functional, organism-based
[23] = system: Human alphaherpesvirus 3; assay: microbe, parasite or virus in culture; format: functional, organism-based
[24] = in vitro; conditions: human, MDM cells
[25] = system: Human immunodeficiency virus 2; assay: microbe, parasite or virus in culture; format: functional, organism-based
[26] = in vitro; conditions: human, PBMC
[27] = system: dengue virus type 2; assay: microbe, parasite or virus in culture; format: functional, organism-based
[28] = system: Dengue virus; assay: microbe, parasite or virus in culture; conditions: Huh-7
[29] = system: Middle East respiratory syndrome-related coronavirus; assay: microbe, parasite or virus in culture
[30] = system: Human coronavirus 229E; assay: microbe, parasite or virus in culture
[31] = system: Feline infectious peritonitis virus; assay: microbe, parasite or virus in culture; conditions: Alphacoronavirus 1
[32] = system: Middle East respiratory syndrome-related coronavirus; assay: microbe, parasite or virus in culture; remark: listed apart in the source
[33] = system: Human coronavirus 229E; assay: microbe, parasite or virus in culture; remark: listed apart in the source
[34] = system: Human coronavirus 229E; assay: Antiviral activity against HCoV-229E assessed as reduction of viral RNA level at 4 uM relative control; format: functional; set-up: scale not given: the % may be the effect or the level left
[35] = in vitro; conditions: human, l132
[36] = system: Influenza A virus; assay: Antiviral activity against influenza A RB1/H1N1pdm09 virus; format: functional, organism-based
[37] = Cytotoxicity against human A549 cells; format: toxicity, cell-based
[38] = Cytotoxicity against MDCK-II cells; format: toxicity, cell-based, Canis lupus familiaris; conditions: dog
[39] = Cytotoxicity against human MCL cells; format: toxicity, cell-based

Sequence of Cyclin-dependent kinase 4 (P11802 whole entry): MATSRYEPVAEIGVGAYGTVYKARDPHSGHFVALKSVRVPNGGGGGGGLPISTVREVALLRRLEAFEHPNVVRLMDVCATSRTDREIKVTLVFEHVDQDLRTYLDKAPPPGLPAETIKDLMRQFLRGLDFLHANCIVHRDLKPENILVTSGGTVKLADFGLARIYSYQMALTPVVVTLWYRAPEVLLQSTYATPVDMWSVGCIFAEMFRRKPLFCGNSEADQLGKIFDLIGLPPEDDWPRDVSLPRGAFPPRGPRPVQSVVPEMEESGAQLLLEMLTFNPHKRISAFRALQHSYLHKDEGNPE

Q: What does the source list for `CO[C@H]1C[C@@H]2CC[C@@H](C)[C@@](O)(O2)C(=O)C(=O)N2CCCC[C@H]2C(=O)O[C@H]([C@H](C)C[C@@H]2CC[C@@H](OCCO)[C@H](OC)C2)CC(=O)[C@H](C)/C=C(\C)[C@@H](O)[C@@H](OC)C(=O)[C@H](C)C[C@H](C)/C=C/C=C/C=C/1C` [EVEROLIMUS]?
A: inhibition at 10 µM [1]: 56%; IC50 [2]: 1.6 nM; CC50 [3]: 28.3 µM; CC50 [4]: 28.3 µM; CC50 ([5]; Huh-7 cells): > 10 µM

Q: With `O=C(Nc1nc2cccc(-c3ccc(CN4CCS(=O)(=O)CC4)cc3)n2n1)C1CC1` [FILGOTINIB] as the compound, how does the EC50 [6] read?
A: 3.1 µM

Q: And the CC50 [7]?
A: > 10 µM

Q: What does the source list for `O=c1c(-c2ccc(O)cc2)coc2cc(O)cc(O)c12` [GENISTEIN]?
A: Activity [8]: 90%; Activity [9]: 11%; EC50 [10]: 33 µM; Activity [11]: >50%; Activity [12]: >50%; Activity [13]: >50%; CC50 [14]: > 50 µM

Q: What does the source list for `Cc1oncc1C(=O)Nc1ccc(C(F)(F)F)cc1` [LEFLUNOMIDE]?
A: EC50 [15]: 40 µM; CC50 [16]: 20.8 µM

Q: Which EC50 [17] does the source give for `NC1(c2ccc(-c3nc4ccn5c(=O)[nH]nc5c4cc3-c3ccccc3)cc2)CCC1` [MK-2206] here?
A: 790 nM

Q: And the IC50 [18]?
A: 790 nM

Q: And the CC50 [19]?
A: 58.5 µM

Q: For `C1=C/COCc2cc(ccc2OCCN2CCCC2)Nc2nccc(n2)-c2cccc(c2)COC/1` [PACRITINIB], which CC50 [20] is on record?
A: > 1000 nM

Q: What does the source list for `CC(C)[C@H](CO)Nc1nc(Nc2cccc(Cl)c2)c2ncn(C(C)C)c2n1` [PURVALANOLA]?
A: IC50 [21]: 4 nM; EC50 [22]: 2210 nM; EC50 [23]: 1000 nM; CC50 [24]: 18.7 µM

Q: With `N#CC[C@H](C1CCCC1)n1cc(-c2ncnc3[nH]ccc23)cn1` [RUXOLITINIB] as the compound, how does the EC50 [22] read?
A: 300 nM

Q: What about the EC50 [25] of the same compound?
A: 200 nM

Q: And the CC50 [26]?
A: > 100 µM

Q: For `CN1CCN(CCOc2cc(OC3CCOCC3)c3c(Nc4c(Cl)ccc5c4OCO5)ncnc3c2)CC1` [SARACATINIB], which EC50 [27] is on record?
A: 12.2 µM

Q: And the CC50 ([5]; huh-7)?
A: 74 µM

Q: What about the EC50 [28] of the same compound?
A: 12.2 µM

Q: And the EC50 [29]?
A: 2900 nM

Q: What about the EC50 [30] of the same compound?
A: 2400 nM

Q: And the EC50 [31]?
A: 7 µM

Q: What about the EC50 [32] of the same compound?
A: 2900 nM

Q: What about the EC50 [33] of the same compound?
A: 2400 nM

Q: Which results are given for `C[S+]([O-])c1ccc(-c2nc(-c3ccc(F)cc3)c(-c3ccncc3)[nH]2)cc1` (stereo unspecified) [SB-203580]?
A: Activity [34]: 60%; CC50 [35]: > 10 µM

Q: With `CC(=O)Nc1cccc(-n2c(=O)n(C3CC3)c(=O)c3c(Nc4ccc(I)cc4F)n(C)c(=O)c(C)c32)c1` [TRAMETINIB] as the compound, how does the EC50 [36] read?
A: 16 nM

Q: What about the CC50 [37] of the same compound?
A: > 20 µM

Q: And the CC50 [38]?
A: > 20 µM

Q: Which CC50 [39] does the source give for `C=CC(=O)N1CCC([C@@H]2CCNc3c(C(N)=O)c(-c4ccc(Oc5ccccc5)cc4)nn32)CC1` [ZANUBRUTINIB] here?
A: > 1400 nM
